Measurements reported in ChEMBL document CHEMBL3813619, “Feeling Nature's PAINS: Natural Products, Natural Product Drugs, and Pan Assay Interference Compounds (PAINS)” (J Nat Prod, 2016).

What was measured:
Rattus norvegicus = assay: Antiinflammatory activity in po dosed rat assessed as inhibition of reverse passive arthus reaction; type: functional
[1] = Selectivity ratio of mouse Kv1.3 to ratio of KCa3.1 (unknown origin)
[2] = biological target: Potassium voltage-gated channel subfamily A member 3 (Mus musculus, UniProt P16390); assay: Inhibition of mouse Kv1.3 expressed in L929 cells at -80 mV holding potential by whole cell patch-clamp method; type: cell-based
Potassium voltage-gated channel subfamily A member 3, sequence (P16390 whole entry): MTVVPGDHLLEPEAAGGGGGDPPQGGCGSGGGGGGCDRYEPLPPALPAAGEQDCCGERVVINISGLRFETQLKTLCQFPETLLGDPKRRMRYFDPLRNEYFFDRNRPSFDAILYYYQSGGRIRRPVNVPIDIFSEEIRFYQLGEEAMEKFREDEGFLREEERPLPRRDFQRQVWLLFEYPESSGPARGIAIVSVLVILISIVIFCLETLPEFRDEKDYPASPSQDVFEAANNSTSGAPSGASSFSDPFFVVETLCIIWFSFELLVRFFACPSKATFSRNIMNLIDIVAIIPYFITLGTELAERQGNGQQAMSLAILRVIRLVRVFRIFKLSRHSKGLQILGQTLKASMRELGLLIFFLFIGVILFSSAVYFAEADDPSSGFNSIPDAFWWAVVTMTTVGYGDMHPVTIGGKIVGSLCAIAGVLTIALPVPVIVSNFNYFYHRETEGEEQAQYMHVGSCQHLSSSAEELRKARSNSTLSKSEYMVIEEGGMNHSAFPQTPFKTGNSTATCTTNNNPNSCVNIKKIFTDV

Selectivity ratio [1] | EC50 [2] | Compound | ED50 (Rattus norvegicus)
– | – | Cc1cc(=O)c2c(O)cc(O)c([C@H]3CCN(C)C[C@H]3O)c2o1 [ROHITUKINE] | 2.5 mg/kg
10 | 1 µM | COc1c(C(C)=O)c(O)c(OCCCc2ccccc2)c2occc12 | –
